9 compounds from PubChem BioAssay (NCI) can be followed below.

Some test systems named below: CAKI-1 renal; HT29 colon; LOX IMVI melanoma; MDA-MB-435; OVCAR-5 ovarian; RXF 393 renal; SK-MEL-2 melanoma; SK-MEL-5 melanoma; SNB-19 CNS; UACC-257 melanoma.
What all share (assay): DTP human tumour cell line panel, 48 h

Values joined by “and” are separate entries in the source; they are usually repeats but may differ in a detail not shown here. Identical values can stand only once.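 Protocol summary: plate cells (96-well), add compound at 5 concentrations, incubate 48 h, interpolate endpoints linearly. GI50 marks 50% less growth. At the TGI there is no net growth.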

What is called GI50 is the concentration at which growth is held to half of that of the control. Usually TGI stands for the concentration at which net growth stops. A lower TGI goes with greater sensitivity of the cells.

In the case of `CCCCOC1OC(COC(=O)C(C)C)C(OC(=O)C(C)C)C(O)C1OC1OC(C)C(OC(=O)CCC)C(OC(=O)C(C)C)C1O` (stereo unspecified), the GI50 in the experiment on CAKI-1 renal is 17.4 µM; in the experiment with HT29 colon, 9.33 µM; in the experiment on LOX IMVI melanoma, 13.3 µM; with MDA-MB-435, 14.5 µM; in the experiment on OVCAR-5 ovarian, 12.7 µM; in the experiment with RXF 393 renal it was 8.41 µM. The GI50 with SK-MEL-2 melanoma is 36.2 µM; in the experiment with SK-MEL-5 melanoma, 13.6 µM; in the experiment on SNB-19 CNS, 16.5 µM; in the experiment on UACC-257 melanoma, 18.5 µM. Further, the TGI in the experiment with CAKI-1 renal was determined as 31.1 µM; in the experiment with HT29 colon, 22.5 µM; with LOX IMVI melanoma it was 26.1 µM; in the experiment on MDA-MB-435, 27.6 µM; with OVCAR-5 ovarian it was 25.2 µM; with RXF 393 renal, 31.2 µM. Moreover, the TGI with SK-MEL-2 melanoma is > 100 µM; with SK-MEL-5 melanoma, 26.5 µM; with SNB-19 CNS, 31.3 µM; in the experiment with UACC-257 melanoma, 32.5 µM.

Turning to `COc1ccc2c(c1)-c1nn(CCCN(C)C)c3ccc([N+](=O)[O-])c(c13)N2`, the TGI was 4.63 µM and 6.34 µM with CAKI-1 renal; 2.46 µM and 3.05 µM in the experiment with HT29 colon; 0.957 µM and 4.08 µM in the experiment with LOX IMVI melanoma; 2.9 µM in the experiment on MDA-MB-435; 3.46 µM and 9.7 µM in the experiment on OVCAR-5 ovarian; 1.33 µM and 2.05 µM with RXF 393 renal. Besides, the TGI with SK-MEL-2 melanoma is 4.28 µM and 4.55 µM; in the experiment on SK-MEL-5 melanoma, 2 µM and 2.92 µM; in the experiment on SNB-19 CNS, 6.33 µM and 11.3 µM; in the experiment on UACC-257 melanoma, 3.26 µM and 10.9 µM. Besides, the GI50 in the experiment on LOX IMVI melanoma is 0.101 µM and 0.345 µM; with MDA-MB-435, 0.165 µM and 0.593 µM; in the experiment with OVCAR-5 ovarian it was 0.356 µM and 1.35 µM; in the experiment with RXF 393 renal, 0.274 µM and 0.135 µM; in the experiment on SNB-19 CNS it was 0.192 µM and 0.59 µM; in the experiment with UACC-257 melanoma, 0.455 µM and 1.1 µM.

Turning to `COc1cc2c(c(OC)c1OC)-c1ccc(N=NC(N)=S)c(=O)cc1[C@@H](NC(C)=O)CC2`, the GI50 in the experiment on CAKI-1 renal was > 24.4 µM; in the experiment with HT29 colon, 0.388 µM; in the experiment with LOX IMVI melanoma it was 0.618 µM; with MDA-MB-435 it was 0.216 µM; in the experiment with OVCAR-5 ovarian it was 2.26 µM; with RXF 393 renal, 0.937 µM. Also, the 50% growth inhibitory concentration (GI50) was 0.393 µM with SK-MEL-2 melanoma, 0.324 µM in the experiment on SK-MEL-5 melanoma, 0.578 µM with SNB-19 CNS and > 100 µM with UACC-257 melanoma. Besides, the TGI in the experiment with CAKI-1 renal was > 100 µM; in the experiment on HT29 colon it was > 100 µM; with LOX IMVI melanoma it was > 100 µM; in the experiment on MDA-MB-435, 0.577 µM; in the experiment on OVCAR-5 ovarian it was > 100 µM; in the experiment on RXF 393 renal it was > 100 µM. The TGI in the experiment on SK-MEL-2 melanoma is > 100 µM; in the experiment with SK-MEL-5 melanoma, 1.24 µM; with SNB-19 CNS, > 100 µM; in the experiment with UACC-257 melanoma, > 100 µM.

With `O=C(O)c1c(Br)c(Br)c(Br)c(Br)c1C1c2ccc(O)cc2Oc2cc(O)ccc21`, the TGI in the experiment on CAKI-1 renal, with HT29 colon, in the experiment on LOX IMVI melanoma, with MDA-MB-435, in the experiment on OVCAR-5 ovarian and in the experiment on RXF 393 renal was > 100 µM each time. Besides, the total growth inhibition concentration (TGI) in the experiment on SK-MEL-2 melanoma, in the experiment on SK-MEL-5 melanoma, in the experiment on SNB-19 CNS and in the experiment on UACC-257 melanoma was > 100 µM each time.

In the case of `O=C(CCCN1CCC(C(O)c2ccc(F)cc2)CC1)c1ccc(F)cc1` (stereo unspecified), the TGI in the experiment with CAKI-1 renal is 114 µM; with HT29 colon, 92.7 µM; in the experiment with LOX IMVI melanoma, 103 µM; with MDA-MB-435 it was 109 µM; in the experiment on OVCAR-5 ovarian, 116 µM; in the experiment with RXF 393 renal, 98.3 µM. Besides, the TGI amounted to 113 µM in the experiment on SK-MEL-2 melanoma, 99.3 µM with SK-MEL-5 melanoma, 114 µM with SNB-19 CNS and 121 µM with UACC-257 melanoma.

For the compound `O=C1CC/C(=C/COc2cc(=O)oc3ccccc23)O1`, the GI50 with CAKI-1 renal was 11.9 µM; with HT29 colon, 4.38 µM; in the experiment on LOX IMVI melanoma, 6.41 µM; in the experiment on MDA-MB-435, 7.11 µM; with OVCAR-5 ovarian, 3.68 µM; in the experiment on RXF 393 renal, 6.9 µM. Further, the GI50 in the experiment with SK-MEL-2 melanoma is 6.78 µM; in the experiment with SK-MEL-5 melanoma, 16.8 µM; in the experiment with SNB-19 CNS, 10.9 µM; with UACC-257 melanoma, 12.9 µM. In addition, the TGI in the experiment on CAKI-1 renal was found to be 28.3 µM; with HT29 colon, 19.6 µM; in the experiment on LOX IMVI melanoma, 19.7 µM; with MDA-MB-435, 22.1 µM; in the experiment on OVCAR-5 ovarian, 22.2 µM; in the experiment with RXF 393 renal it was 21 µM. In addition, the TGI in the experiment on SK-MEL-2 melanoma amounted to 37.1 µM; in the experiment on SK-MEL-5 melanoma it was 33.1 µM; in the experiment with SNB-19 CNS, 26.7 µM; with UACC-257 melanoma it was 27.7 µM.

Regarding `Cn1cc(C2=C(Nc3ccccc3)C(=O)NC2=O)c2ccccc21`, the GI50 in the experiment with CAKI-1 renal was > 25 µM; in the experiment with HT29 colon, 14.7 µM; in the experiment with LOX IMVI melanoma, > 25 µM; in the experiment with MDA-MB-435, > 25 µM; with OVCAR-5 ovarian, > 25 µM; in the experiment with RXF 393 renal, > 25 µM. Also, the GI50 in the experiment on SK-MEL-2 melanoma, in the experiment with SK-MEL-5 melanoma, in the experiment with SNB-19 CNS and in the experiment on UACC-257 melanoma was > 25 µM each time. Besides, the TGI in the experiment on CAKI-1 renal, with HT29 colon, in the experiment with LOX IMVI melanoma, with MDA-MB-435, in the experiment on OVCAR-5 ovarian and in the experiment with RXF 393 renal was > 25 µM each time. Moreover, the TGI in the experiment on SK-MEL-2 melanoma, with SK-MEL-5 melanoma, in the experiment on SNB-19 CNS and with UACC-257 melanoma was > 25 µM each time.

With `CC1(C)O[C@@H]2C[C@H]3[C@@H]4C[C@H](F)C5=CC(=O)C=C[C@]5(C)[C@@]4(F)[C@@H](O)C[C@]3(C)[C@]2(C(=O)CO)O1`, the TGI in the experiment on CAKI-1 renal, in the experiment on HT29 colon, in the experiment on LOX IMVI melanoma, in the experiment on MDA-MB-435, in the experiment with OVCAR-5 ovarian and in the experiment with RXF 393 renal was > 100 µM in each case. Moreover, the TGI with SK-MEL-2 melanoma, with SK-MEL-5 melanoma, in the experiment on SNB-19 CNS and with UACC-257 melanoma was > 100 µM throughout.

As for `O=C1c2cccnc2C(=O)c2c1c(C(=O)OCCCN1CCCCC1)c1ccccn21`, the GI50 is < 0.01 µM in the experiment with CAKI-1 renal; 0.0295 µM with HT29 colon; < 0.01 µM in the experiment on LOX IMVI melanoma; 0.0142 µM with MDA-MB-435; 0.0344 µM in the experiment on OVCAR-5 ovarian; < 0.0108 µM with RXF 393 renal. Moreover, the GI50 with SK-MEL-2 melanoma is 0.0303 µM; with SK-MEL-5 melanoma it was < 0.0143 µM; in the experiment with SNB-19 CNS it was < 0.01 µM; in the experiment with UACC-257 melanoma, < 0.01 µM. Further, the TGI is 0.105 µM with CAKI-1 renal; 0.665 µM with HT29 colon; < 0.01 µM in the experiment with LOX IMVI melanoma; 0.0417 µM in the experiment with MDA-MB-435; 1.83 µM in the experiment on OVCAR-5 ovarian; < 0.019 µM with RXF 393 renal. Further, the TGI in the experiment with SK-MEL-2 melanoma is 0.0808 µM; in the experiment on SK-MEL-5 melanoma, 0.0466 µM; with SNB-19 CNS, 1.83 µM; in the experiment on UACC-257 melanoma it was 0.0549 µM.
